How the values were obtained:
[1] = target: Activin receptor type-1B (Homo sapiens) (UniProt P36896); conditions: Compound concentration 1000.0 nM
[2] = target: 5-hydroxytryptamine receptor 1D (Homo sapiens) (UniProt P28221); conditions: Compound concentration 10.0 uM
[3] = target: Dual specificity mitogen-activated protein kinase kinase 6 (Homo sapiens) (UniProt P52564); conditions: Compound concentration 1000.0 nM
[4] = target: Sigma non-opioid intracellular receptor 1 (Homo sapiens, UniProt Q99720); conditions: Compound concentration 10.0 uM
[5] = target: Calcium/calmodulin-dependent protein kinase type II subunit alpha (Homo sapiens) (UniProt Q9UQM7); conditions: Compound concentration 1000.0 nM
[6] = target: Serine/threonine-protein kinase pim-1 (Homo sapiens) (UniProt P11309); conditions: Compound concentration 1000.0 nM
[7] = target: SRSF protein kinase 3 (Homo sapiens) (UniProt Q9UPE1); conditions: Compound concentration 1000.0 nM
[8] = target: Cyclin-dependent kinase 2 homolog (Plasmodium falciparum (isolate 3D7)) (UniProt P61075); conditions: Compound concentration 1000.0 nM
[9] = test system: Epidermal growth factor receptor (Homo sapiens), P00533 [T790M]; conditions: Compound concentration 1000.0 nM
[10] = target: D(3) dopamine receptor (Homo sapiens) (UniProt P35462); conditions: Compound concentration 10.0 uM
[11] = target: Mitogen-activated protein kinase kinase kinase 1 (Homo sapiens) (UniProt Q13233); conditions: Compound concentration 1000.0 nM
[12] = target: Activated CDC42 kinase 1 (Homo sapiens) (UniProt Q07912); conditions: Compound concentration 1000.0 nM
[13] = target: Mitogen-activated protein kinase 13 (Homo sapiens) (UniProt O15264); conditions: Compound concentration 1000.0 nM
[14] = target: Mitogen-activated protein kinase kinase kinase kinase 1 (Homo sapiens) (UniProt Q92918); conditions: Compound concentration 1000.0 nM
[15] = target: Myotonin-protein kinase (Homo sapiens) (UniProt Q09013); conditions: Compound concentration 1000.0 nM
[16] = target: Megakaryocyte-associated tyrosine-protein kinase (Homo sapiens) (UniProt P42679); conditions: Compound concentration 1000.0 nM
[17] = target: Serine/threonine-protein kinase Sgk3 (Homo sapiens) (UniProt Q96BR1); conditions: Compound concentration 1000.0 nM
[18] = target: Cyclin-dependent kinase 4 (Homo sapiens) (UniProt P11802); conditions: Compound concentration 1000.0 nM
Rattus norvegicus = organism: Rattus norvegicus; conditions: Compound concentration 10.0 uM
[19] = target: Serine/threonine-protein kinase DCLK1 (Homo sapiens) (UniProt O15075); conditions: Compound concentration 1000.0 nM
[20] = target: Mitogen-activated protein kinase kinase kinase 3 (Homo sapiens) (UniProt Q99759); conditions: Compound concentration 1000.0 nM
Sequence of Mitogen-activated protein kinase kinase kinase 3 (Homo sapiens) (Q99759 whole entry): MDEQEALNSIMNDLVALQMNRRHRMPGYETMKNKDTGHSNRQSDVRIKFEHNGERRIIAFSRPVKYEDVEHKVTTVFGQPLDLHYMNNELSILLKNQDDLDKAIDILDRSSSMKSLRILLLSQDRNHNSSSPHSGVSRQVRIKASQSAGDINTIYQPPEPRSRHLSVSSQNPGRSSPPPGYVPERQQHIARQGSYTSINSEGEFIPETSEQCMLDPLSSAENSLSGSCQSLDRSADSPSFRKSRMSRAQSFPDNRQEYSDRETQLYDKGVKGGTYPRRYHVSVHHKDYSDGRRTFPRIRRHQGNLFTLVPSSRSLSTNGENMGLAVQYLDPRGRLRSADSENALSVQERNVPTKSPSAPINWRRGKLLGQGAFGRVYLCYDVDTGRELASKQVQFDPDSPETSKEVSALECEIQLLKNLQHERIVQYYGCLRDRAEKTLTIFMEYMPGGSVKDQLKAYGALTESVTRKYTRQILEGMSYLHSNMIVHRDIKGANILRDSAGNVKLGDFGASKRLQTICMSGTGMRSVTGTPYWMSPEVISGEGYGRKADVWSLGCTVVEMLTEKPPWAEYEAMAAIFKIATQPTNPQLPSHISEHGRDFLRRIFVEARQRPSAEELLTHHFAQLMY

[21] = target: Serine/threonine-protein kinase 24 (Homo sapiens) (UniProt Q9Y6E0); conditions: Compound concentration 1000.0 nM
[22] = target: Serine/threonine-protein kinase RIO1 (Homo sapiens) (UniProt Q9BRS2); conditions: Compound concentration 1000.0 nM
[23] = target: Serine/threonine-protein kinase D2 (Homo sapiens) (UniProt Q9BZL6); conditions: Compound concentration 1000.0 nM
Sequence of Serine/threonine-protein kinase D2 (Homo sapiens) (Q9BZL6 whole entry): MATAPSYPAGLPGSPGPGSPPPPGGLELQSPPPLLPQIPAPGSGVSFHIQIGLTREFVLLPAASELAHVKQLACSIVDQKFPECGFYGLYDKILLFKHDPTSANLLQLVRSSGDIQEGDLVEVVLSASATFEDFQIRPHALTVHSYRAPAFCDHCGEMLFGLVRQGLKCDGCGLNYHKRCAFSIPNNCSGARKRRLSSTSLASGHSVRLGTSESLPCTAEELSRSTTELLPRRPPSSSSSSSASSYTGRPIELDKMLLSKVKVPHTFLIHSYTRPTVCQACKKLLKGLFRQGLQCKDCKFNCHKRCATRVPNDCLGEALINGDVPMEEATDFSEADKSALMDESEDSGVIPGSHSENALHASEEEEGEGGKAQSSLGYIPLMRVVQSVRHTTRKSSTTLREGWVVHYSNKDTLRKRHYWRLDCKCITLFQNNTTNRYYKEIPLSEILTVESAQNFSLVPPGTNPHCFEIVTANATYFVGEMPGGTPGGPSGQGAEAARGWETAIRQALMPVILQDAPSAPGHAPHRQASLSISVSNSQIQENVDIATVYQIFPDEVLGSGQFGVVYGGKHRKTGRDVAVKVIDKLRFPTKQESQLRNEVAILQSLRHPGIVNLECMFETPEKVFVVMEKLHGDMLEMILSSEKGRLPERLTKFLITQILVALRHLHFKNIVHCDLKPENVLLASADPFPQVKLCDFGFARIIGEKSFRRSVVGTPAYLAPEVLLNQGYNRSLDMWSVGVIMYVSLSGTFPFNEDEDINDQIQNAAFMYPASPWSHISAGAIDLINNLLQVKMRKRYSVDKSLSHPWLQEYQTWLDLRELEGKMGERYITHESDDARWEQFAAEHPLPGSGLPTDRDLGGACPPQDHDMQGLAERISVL

[24] = target: Mitogen-activated protein kinase 8 (Homo sapiens) (UniProt P45983); conditions: Compound concentration 1000.0 nM
[25] = target: Serine/threonine-protein kinase BRSK2 (Homo sapiens) (UniProt Q8IWQ3); conditions: Compound concentration 1000.0 nM
Sequence of Serine/threonine-protein kinase BRSK2 (Homo sapiens) (Q8IWQ3 whole entry): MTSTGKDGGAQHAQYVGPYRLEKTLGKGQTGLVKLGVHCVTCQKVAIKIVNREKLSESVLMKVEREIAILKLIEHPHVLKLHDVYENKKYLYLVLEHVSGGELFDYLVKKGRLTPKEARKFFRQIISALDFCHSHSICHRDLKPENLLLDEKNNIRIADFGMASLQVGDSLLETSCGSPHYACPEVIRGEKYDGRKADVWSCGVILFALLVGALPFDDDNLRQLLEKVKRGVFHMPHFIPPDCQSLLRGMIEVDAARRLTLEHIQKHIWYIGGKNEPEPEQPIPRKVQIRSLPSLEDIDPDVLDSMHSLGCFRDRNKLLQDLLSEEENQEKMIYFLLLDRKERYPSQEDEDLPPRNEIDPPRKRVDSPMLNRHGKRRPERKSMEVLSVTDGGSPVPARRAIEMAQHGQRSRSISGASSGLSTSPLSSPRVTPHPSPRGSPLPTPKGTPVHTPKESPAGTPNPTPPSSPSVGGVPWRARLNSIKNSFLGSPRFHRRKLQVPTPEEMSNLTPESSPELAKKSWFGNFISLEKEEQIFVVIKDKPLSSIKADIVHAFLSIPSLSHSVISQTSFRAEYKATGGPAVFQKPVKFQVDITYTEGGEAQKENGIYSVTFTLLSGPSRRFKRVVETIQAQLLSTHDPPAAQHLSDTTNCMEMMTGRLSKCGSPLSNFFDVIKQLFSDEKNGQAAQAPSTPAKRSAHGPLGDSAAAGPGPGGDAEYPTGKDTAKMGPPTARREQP

[26] = test system: Tyrosine-protein kinase ABL1 (Homo sapiens), P00519 [H396P]; conditions: Compound concentration 1000.0 nM
[27] = target: Ribosomal protein S6 kinase alpha-2 (Homo sapiens) (UniProt Q15349); conditions: Compound concentration 1000.0 nM
[28] = target: Cyclin-dependent kinase 9 (Homo sapiens) (UniProt P50750); conditions: Compound concentration 1000.0 nM
[29] = test system: Tyrosine-protein kinase ABL1 (Homo sapiens), P00519 [Q252H]; conditions: Compound concentration 1000.0 nM
[30] = target: Serine/threonine-protein kinase 4 (Homo sapiens) (UniProt Q13043); conditions: Compound concentration 1000.0 nM
[31] = target: 5-hydroxytryptamine receptor 1E (Homo sapiens) (UniProt P28566); conditions: Compound concentration 10.0 uM
[32] = target: Receptor-type tyrosine-protein kinase FLT3 (Homo sapiens) (UniProt P36888); conditions: Compound concentration 1000.0 nM
Sequence of Receptor-type tyrosine-protein kinase FLT3 (Homo sapiens) (P36888 whole entry): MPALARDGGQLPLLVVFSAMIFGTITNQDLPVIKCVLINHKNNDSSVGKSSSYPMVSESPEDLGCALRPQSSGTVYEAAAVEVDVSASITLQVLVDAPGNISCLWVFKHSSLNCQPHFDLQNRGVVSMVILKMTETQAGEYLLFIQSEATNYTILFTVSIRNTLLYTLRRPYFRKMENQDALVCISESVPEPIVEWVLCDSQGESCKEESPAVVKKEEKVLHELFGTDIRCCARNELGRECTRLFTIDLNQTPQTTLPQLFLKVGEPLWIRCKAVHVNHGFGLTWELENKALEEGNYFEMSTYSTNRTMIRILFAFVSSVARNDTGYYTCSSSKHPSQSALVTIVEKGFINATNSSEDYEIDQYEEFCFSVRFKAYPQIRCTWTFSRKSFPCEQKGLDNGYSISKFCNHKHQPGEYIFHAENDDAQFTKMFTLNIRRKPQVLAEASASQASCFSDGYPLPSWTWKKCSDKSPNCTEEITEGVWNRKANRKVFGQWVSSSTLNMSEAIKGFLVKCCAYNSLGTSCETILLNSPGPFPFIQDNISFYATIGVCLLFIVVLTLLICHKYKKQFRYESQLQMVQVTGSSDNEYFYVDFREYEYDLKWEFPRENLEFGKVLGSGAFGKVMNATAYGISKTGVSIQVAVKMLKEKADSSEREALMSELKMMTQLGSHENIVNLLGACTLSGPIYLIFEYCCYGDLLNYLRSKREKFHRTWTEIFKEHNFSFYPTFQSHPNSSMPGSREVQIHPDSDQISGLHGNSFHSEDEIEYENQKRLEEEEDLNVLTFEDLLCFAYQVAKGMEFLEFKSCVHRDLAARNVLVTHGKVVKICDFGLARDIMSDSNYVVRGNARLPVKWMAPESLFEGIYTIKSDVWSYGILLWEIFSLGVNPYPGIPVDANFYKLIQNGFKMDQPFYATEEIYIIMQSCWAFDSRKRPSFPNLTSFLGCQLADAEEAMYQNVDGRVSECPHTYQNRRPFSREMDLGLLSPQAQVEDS

[33] = target: Calcium/calmodulin-dependent protein kinase type II subunit delta (Homo sapiens) (UniProt Q13557); conditions: Compound concentration 1000.0 nM
Sequence of Calcium/calmodulin-dependent protein kinase type II subunit delta (Homo sapiens) (Q13557 whole entry): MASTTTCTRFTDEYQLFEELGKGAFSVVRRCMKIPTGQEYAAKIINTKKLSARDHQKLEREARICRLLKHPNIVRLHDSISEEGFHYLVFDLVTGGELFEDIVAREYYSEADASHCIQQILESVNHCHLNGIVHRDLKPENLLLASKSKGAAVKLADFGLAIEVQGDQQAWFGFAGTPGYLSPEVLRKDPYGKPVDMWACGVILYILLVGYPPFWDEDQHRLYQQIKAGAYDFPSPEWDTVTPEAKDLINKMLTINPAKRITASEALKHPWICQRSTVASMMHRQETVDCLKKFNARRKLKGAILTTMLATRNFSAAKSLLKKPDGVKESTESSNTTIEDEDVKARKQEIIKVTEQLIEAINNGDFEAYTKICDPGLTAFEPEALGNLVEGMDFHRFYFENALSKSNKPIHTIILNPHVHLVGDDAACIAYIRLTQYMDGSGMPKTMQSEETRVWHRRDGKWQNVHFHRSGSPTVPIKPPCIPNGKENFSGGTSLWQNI

[34] = test system: Epidermal growth factor receptor (Homo sapiens), P00533 [L861Q]; conditions: Compound concentration 1000.0 nM
[35] = target: Ephrin type-A receptor 8 (Homo sapiens) (UniProt P29322); conditions: Compound concentration 1000.0 nM
[36] = target: Tyrosine-protein kinase SYK (Homo sapiens) (UniProt P43405); conditions: Compound concentration 1000.0 nM
[37] = target: Cyclin-dependent kinase 17 (Homo sapiens) (UniProt Q00537); conditions: Compound concentration 1000.0 nM
[38] = target: Serine/threonine-protein kinase MRCK alpha (Homo sapiens) (UniProt Q5VT25); conditions: Compound concentration 1000.0 nM
[39] = target: Calcium/calmodulin-dependent protein kinase type 1D (Homo sapiens) (UniProt Q8IU85); conditions: Compound concentration 1000.0 nM
[40] = target: 5-hydroxytryptamine receptor 7 (Homo sapiens) (UniProt P34969); conditions: Compound concentration 10.0 uM
[41] = test system: Epidermal growth factor receptor (Homo sapiens), P00533 [UNDEFINED MUTATION]; conditions: Compound concentration 1000.0 nM
[42] = target: Mitogen-activated protein kinase 15 (Homo sapiens) (UniProt Q8TD08); conditions: Compound concentration 1000.0 nM
[43] = target: Serine/threonine-protein kinase haspin (Homo sapiens) (UniProt Q8TF76); conditions: Compound concentration 1000.0 nM
Sequence of Serine/threonine-protein kinase haspin (Homo sapiens) (Q8TF76 whole entry): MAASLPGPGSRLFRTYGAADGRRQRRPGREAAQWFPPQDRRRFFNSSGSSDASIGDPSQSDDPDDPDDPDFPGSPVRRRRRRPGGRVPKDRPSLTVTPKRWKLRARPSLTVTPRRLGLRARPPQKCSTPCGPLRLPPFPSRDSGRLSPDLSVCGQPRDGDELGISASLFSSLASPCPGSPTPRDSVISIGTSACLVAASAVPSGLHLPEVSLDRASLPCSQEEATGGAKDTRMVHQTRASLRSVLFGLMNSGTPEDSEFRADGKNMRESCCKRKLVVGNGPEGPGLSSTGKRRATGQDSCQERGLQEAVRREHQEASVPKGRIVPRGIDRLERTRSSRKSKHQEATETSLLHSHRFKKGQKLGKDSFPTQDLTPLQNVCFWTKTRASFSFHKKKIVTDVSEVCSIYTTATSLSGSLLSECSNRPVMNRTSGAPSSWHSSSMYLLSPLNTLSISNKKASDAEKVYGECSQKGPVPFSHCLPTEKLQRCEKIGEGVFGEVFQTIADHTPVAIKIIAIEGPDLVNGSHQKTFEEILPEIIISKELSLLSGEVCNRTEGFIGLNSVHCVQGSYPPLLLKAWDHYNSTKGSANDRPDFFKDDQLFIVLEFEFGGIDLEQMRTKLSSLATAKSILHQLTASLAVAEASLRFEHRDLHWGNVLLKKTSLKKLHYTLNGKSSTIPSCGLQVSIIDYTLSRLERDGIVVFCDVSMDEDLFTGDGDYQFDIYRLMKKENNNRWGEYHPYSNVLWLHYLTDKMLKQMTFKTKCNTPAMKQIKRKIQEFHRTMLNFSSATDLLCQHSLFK

[44] = target: Myosin light chain kinase family member 4 (Homo sapiens) (UniProt Q86YV6); conditions: Compound concentration 1000.0 nM
[45] = target: Cytoplasmic tyrosine-protein kinase BMX (Homo sapiens) (UniProt P51813); conditions: Compound concentration 1000.0 nM

Sequence of Activin receptor type-1B (Homo sapiens) (P36896 whole entry): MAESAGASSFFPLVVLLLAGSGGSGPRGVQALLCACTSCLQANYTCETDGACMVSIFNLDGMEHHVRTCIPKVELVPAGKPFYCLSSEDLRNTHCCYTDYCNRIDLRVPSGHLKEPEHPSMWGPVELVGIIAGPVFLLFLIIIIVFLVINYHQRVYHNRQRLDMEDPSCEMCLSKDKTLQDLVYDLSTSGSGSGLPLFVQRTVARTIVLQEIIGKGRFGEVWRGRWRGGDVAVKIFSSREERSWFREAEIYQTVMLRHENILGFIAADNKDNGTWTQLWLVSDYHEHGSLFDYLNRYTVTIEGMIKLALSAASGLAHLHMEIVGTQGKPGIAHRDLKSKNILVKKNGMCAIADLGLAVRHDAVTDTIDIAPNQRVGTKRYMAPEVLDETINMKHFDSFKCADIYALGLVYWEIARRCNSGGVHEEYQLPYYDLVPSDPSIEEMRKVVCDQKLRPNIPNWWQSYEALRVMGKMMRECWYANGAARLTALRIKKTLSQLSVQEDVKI

SMILES: O=C(Nc1cccnn1)N1CC(C/C=C/c2cncc(Oc3ccc(C(F)(F)F)cn3)n2)C1
- residual activity [1]: 79%
- inhibition [2]: -2.98%
- residual activity [3]: 100%
- inhibition [4]: 32.2%
- residual activity [5]: 100%
- residual activity [6]: 91%
- residual activity [7]: 100%
- residual activity [8]: 93%
- residual activity [9]: 100%
- inhibition [10]: -9.59%
- residual activity [11]: 66%
- residual activity [12]: 100%
- residual activity [13]: 100%
- residual activity [14]: 98%
- residual activity [15]: 100%
- residual activity [16]: 59%
- residual activity [17]: 87%
- residual activity [18]: 75%
- inhibition (Rattus norvegicus): 25.6%
- residual activity [19]: 84%
- residual activity [20]: 79%
- residual activity [21]: 98%
- residual activity [22]: 100%
- residual activity [23]: 100%
- residual activity [24]: 75%
- residual activity [25]: 100%
- residual activity [26]: 100%
- residual activity [27]: 100%
- residual activity [28]: 100%
- residual activity [29]: 81%
- residual activity [30]: 100%
- inhibition [31]: 0.84%
- residual activity [32]: 86%
- residual activity [33]: 100%
- residual activity [34]: 100%
- residual activity [35]: 100%
- residual activity [36]: 100%
- residual activity [37]: 100%
- residual activity [38]: 100%
- residual activity [39]: 100%
- inhibition [40]: 1.18%
- residual activity [41]: 100%
- residual activity [42]: 100%
- residual activity [43]: 79%
- residual activity [44]: 100%
- residual activity [45]: 100%

SMILES: O=C(Nc1cccnn1)N1CCC(=Cc2cccc(Oc3ccc(C(F)(F)F)cn3)c2)CC1
- residual activity [1]: 88%
- inhibition [2]: 42.1%
- residual activity [3]: 100%
- inhibition [4]: 88.5%
- residual activity [5]: 72%
- residual activity [6]: 85%
- residual activity [7]: 81%
- residual activity [8]: 100%
- residual activity [9]: 100%
- inhibition [10]: 4.08%
- residual activity [11]: 100%
- residual activity [12]: 100%
- residual activity [13]: 86%
- residual activity [14]: 80%
- residual activity [15]: 100%
- residual activity [16]: 100%
- residual activity [17]: 93%
- residual activity [18]: 100%
- inhibition (Rattus norvegicus): 59.6%
- residual activity [19]: 100%
- residual activity [20]: 100%
- residual activity [21]: 100%
- residual activity [22]: 100%
- residual activity [23]: 94%
- residual activity [24]: 100%
- residual activity [25]: 90%
- residual activity [26]: 86%
- residual activity [27]: 100%
- residual activity [28]: 93%
- residual activity [29]: 99%
- residual activity [30]: 77%
- inhibition [31]: 19%
- residual activity [32]: 97%
- residual activity [33]: 82%
- residual activity [34]: 84%
- residual activity [35]: 100%
- residual activity [36]: 100%
- residual activity [37]: 100%
- residual activity [38]: 95%
- residual activity [39]: 97%
- inhibition [40]: 37.5%
- residual activity [41]: 83%
- residual activity [42]: 83%
- residual activity [43]: 100%
- residual activity [44]: 100%
- residual activity [45]: 71%
